In paper PMC8779240 (Bioorganic & medicinal chemistry letters, 2021):

Experiments:
[1] = test system: Escherichia coli; test: MIC against E. coli; type: cell-based
[2] = test system: S. aureus ParC^S80F GyrA^S84L; type: cell-based, Staphylococcus aureus; conditions: ParC^S80F/GyrA^S84L strain

SMILES	potency compared with fluoroquinolone parent, MIC data in units of μM [2]	other results
CC(=O)O[C@H]1[C@H](C)[C@H](O)[C@H](C)[C@@H](O)[C@@H](C(C)OC(=O)C(C)(C)CC(=O)O)/C=C/C=C(/C)C(=O)NC2=CC(=O)c3c(c(O)c(C)c4c3C(=O)[C@@](C)(O/C=C/[C@H](O[C@H]3C[C@@H]5OCO[C@@H]5[C@@H](C)O3)[C@H]1C)O4)C2=O (stereo partly shown) [Compound 1, kanglemycin A]		Gram-negative activity against E. coli [1]: did not show Gram-negative activity
CC(=O)O[C@H]1[C@H](C)[C@H](O)[C@H](C)[C@@H](O)[C@@H](C(C)OC(=O)C(C)(C)CC(=O)O)/C=C/C=C(/C)C(=O)Nc2c3oc4cc(N5CCN(c6cc7c(cc6F)c(=O)c(C(=O)O)cn7C6CC6)CC5)cc(O)c4nc-3c3c4c(c(C)c(O)c3c2=O)O[C@](C)(O/C=C/[C@H](O[C@H]2C[C@@H]3OCO[C@@H]3[C@@H](C)O2)[C@H]1C)C4=O (stereo partly shown) [Compound 5a]		fold improvement in MIC compared to ciprofloxacin in units of μM ([2]; MIC in μM): ~ 277 fold; fold improvement in activity compared to ciprofloxacin ([2]; MIC in μg/mL): 64 fold
CC(=O)O[C@H]1[C@H](C)[C@H](O)[C@H](C)[C@@H](O)[C@@H](C(C)OC(=O)C(C)(C)CC(=O)O)/C=C/C=C(/C)C(=O)Nc2c3oc4cc(N5Cc6cc(-c7ccc8c(=O)c(C(=O)O)cn(C9CC9)c8c7OC(F)F)ccc6[C@H]5C)cc(O)c4nc-3c3c4c(c(C)c(O)c3c2=O)O[C@](C)(O/C=C/[C@H](O[C@H]2C[C@@H]3OCO[C@@H]3[C@@H](C)O2)[C@H]1C)C4=O (stereo partly shown) [Compound 5c]	surpassed the potency of their fluoroquinolone parents	
COc1c(N2C[C@@H]3CCCN(CCCNc4cc(O)c5nc6c7c8c9c(C)c(O)c7c(=O)c(c-6oc5c4)NC(=O)/C(C)=C\C=C\[C@H](C(C)OC(=O)C(C)(C)CC(=O)O)[C@H](O)[C@@H](C)[C@@H](O)[C@@H](C)[C@H](OC(C)=O)[C@H](C)[C@@H](O[C@H]4C[C@@H]5OCO[C@@H]5[C@@H](C)O4)/C=C/O[C@@](C)(O9)C8=O)[C@@H]3C2)c(F)cc2c(=O)c(C(=O)O)cn(C3CC3)c12 (stereo partly shown) [Compound 6e]	surpassed the potency of their fluoroquinolone parents	
COc1c(N2C[C@@H]3CCCN(c4cc(O)c5nc6c7c8c9c(C)c(O)c7c(=O)c(c-6oc5c4)NC(=O)/C(C)=C\C=C\[C@H](C(C)OC(=O)C(C)(C)CC(=O)O)[C@H](O)[C@@H](C)[C@@H](O)[C@@H](C)[C@H](OC(C)=O)[C@H](C)[C@@H](O[C@H]4C[C@@H]5OCO[C@@H]5[C@@H](C)O4)/C=C/O[C@@](C)(O9)C8=O)[C@@H]3C2)c(F)cc2c(=O)c(C(=O)O)cn(C3CC3)c12 (stereo partly shown) [Compound 5e]	surpassed the potency of their fluoroquinolone parents	
CC(=O)O[C@H]1[C@H](C)[C@H](O)[C@H](C)[C@@H](O)[C@@H](C(C)OC(=O)C(C)(C)CC(=O)O)/C=C/C=C(/C)C(=O)Nc2c3oc4cc(NC5(c6c(F)cc7c(=O)c(C(=O)O)cn8c7c6OC[C@@H]8C)CC5)cc(O)c4nc-3c3c4c(c(C)c(O)c3c2=O)O[C@](C)(O/C=C/[C@H](O[C@H]2C[C@@H]3OCO[C@@H]3[C@@H](C)O2)[C@H]1C)C4=O (stereo partly shown) [Compound 5b]	surpassed the potency of their fluoroquinolone parents	
